The numbers were not newly measured in patent publication US8604163B2, “EEF2K assays for identifying compounds that inhibit EEF2K activity” (University of Medicine and Dentistry of New Jersey, priority 2009, dated 2013), which cites them from elsewhere.

This data set relates to glioma cell lines. The note with it: by inhibiting eEF2-K; Parmer et al. 1997.

Regarding `CC(=O)c1c(O)c(C)c(O)c(Cc2c(O)c3c(c(C(=O)/C=C/c4ccccc4)c2O)OC(C)(C)C=C3)c1O` [rottlerin], the “growth of glioma cell lines” value is “inhibit growth of glioma cell lines”.
